The subject of one test is ESKAPE pathogens. The experiment in a line: Antimicrobial efficacy against ESKAPE pathogens (all other than P. aeruginosa). Conditions: mammalian serum; susceptible and drug-resistant strains. The test is classed as cell-based. The protocol:
FIG. 8 is a graph showing antimicrobial efficacies of ATRA1-R3W2-HYD (blue), NA-CATH (dark orange) and PMB (green) against selected members of ESKAPE (Enterococcus faecium, Staphylococcus aureus, Klebsiella pneumoniae, Acinetobacter baumannii, Pseudomonas aeruginosa, and Enterobacter) pathogens. Both susceptible and drug-resistant strains were used. All the bacteria, except Pseudomonas aeruginosa, were tested under mammalian serum. P. aeruginosa results were obtained from testing in DPBS. The results are presented as mean of tests in triplicate with error-bars depicting the 95% confidence interval of the mean.
Antimicrobial Studies. The phosphate buffers used for antimicrobial assays were supplemented with non-nitrogenous energy source, 0.1% (w/v) glucose. […]
(§1) Antimicrobial assays in different phosphate buffers and serum were conducted by adapting, with necessary modifications a fast high-throughput method based on Virtual Colony Count technique and later modified by incorporating the use of resazurin. At first serial dilution of a microbial strain in respective buffer was poured in the wells of 96 well polypropylene microplate and was then added with same volume of 2× MHB II supplemented with 80 μg/mL resazurin and incubated at 35° C. in a Gemini EM Microplate Reader (Molecular Devices) overnight with intermittent shaking. […]

In test [1] the test system is Klebsiella pneumoniae (ATCC BAA-1705). The experiment in a line: Antimicrobial efficacy against ESKAPE pathogens. In kind it is cell-based. The following applies: mammalian serum. As to the method:
(§2) Antimicrobial Studies. The phosphate buffers used for antimicrobial assays were supplemented with non-nitrogenous energy source, 0.1% (w/v) glucose. To conduct antimicrobial assays, bacterial strains were first suspended in respective buffers. E. coli (ATCC 25922) and B. cereus (ATCC 11778) were grown in MHB II up to OD600 nm˜1 and stored as frozen stock in 20% glycerol at −80° C. Occasionally they were thawed and enumerated by serial dilution and spreading on MHB II agar plates. The concentrations of the frozen stocks of E. coli and B. cereus strains were 1.0-1.1*10^8 CFU/mL with OD600 nm˜0.8. In case of other bacterial strains, they were grown on the days of experiment up to OD600 nm˜1-1.5 and then adjusted to OD600 nm˜0.8. The growth media of the drug-resistant bacterial strains were supplemented with few of the respective antibiotics against which they are resistant. 200 μL of the 0.8 OD600 nm culture were added to 10 mL of the respective buffer to obtain a suspension which was used to incubate with equal volumes of peptide solution in the same buffer.
as §1, with “shaking. As the microbe grows it reduces non-fluorescent resazurin to fluorescent resorufin and the fluorescent intensity of each well were measured (excitation=570 nm, emission=590 nm) each 5 min for 15 hours. The time (t, min) to reach a certain fluorescence (RFU=20000 with respect to the starting fluorescence) was correlated with the initial bacterial concentration (in CFU/mL) in the particular well to obtain a calibration plot of the form: Log([Bacteria],CFU/mL)=b+m*t Equation 4:” for “shaking.”
(§3) To obtain antimicrobial efficacy of the peptides, 50 μL of serially diluted peptide in a buffer was incubated with 50 μL microbial suspension in the same buffer for 3 hours in black polypropylene 96 well plate. After incubation the wells were added with 100 μL of 2× MHB II supplemented with 80 μg/mL resazurin and then incubated with continuous fluorescence reading for overnight time period as described earlier. The surviving microbial population (CFU/mL) in each well were calculated by first finding the time to reach a fluorescence of RFU=20000 and the correlation (4) for the specific microbial strain and buffer. % Survival represents the proportion of viable cells in peptide treated cells relative to cells treated with the respective buffer alone. Equation 5: […]
(§4) Finally, the antimicrobial effectiveness of each peptide against the particular microbial strain in the specific buffer was determined by plotting % microbial survival as a function of the log of the concentration of the peptide and fitting the resulting data to a variable-slope sigmoidal regression model (equation 6). […]
(§5) ATRA1-R3W2-HYD, NA-CATH and PMB were evaluated for their effectiveness in mammalian serum conditions against pathogenic bacteria of both normal and drug-resistant strains. […]

A further test relates to Pseudomonas aeruginosa. The test can be described thus: Antimicrobial efficacy against ESKAPE pathogens. In kind it is cell-based. The protocol:
as §2
as §1, with “shaking. As the microbe grows it reduces non-fluorescent resazurin to fluorescent resorufin and the fluorescent intensity of each well were measured (excitation=570 nm, emission=590 nm) each 5 min for 15 hours. The time (t, min) to reach a certain fluorescence (RFU=20000 with respect to the starting fluorescence) was correlated with the initial bacterial concentration (in CFU/mL) in the particular well to obtain a calibration plot of the form: Log([Bacteria],CFU/mL)=b+m*t Equation 4:” for “shaking.”
as §3, §4, §5

Test [2] concerns multi-drug resistant (MDR) Acinetobacter baumannii (ATCC BAA-1795). The test can be described thus: Antimicrobial efficacy against ESKAPE pathogens. In kind it is cell-based. Conditions: mammalian serum. As to the method: as §2
as §1, with “shaking. As the microbe grows it reduces non-fluorescent resazurin to fluorescent resorufin and the fluorescent intensity of each well were measured (excitation=570 nm, emission=590 nm) each 5 min for 15 hours. The time (t, min) to reach a certain fluorescence (RFU=20000 with respect to the starting fluorescence) was correlated with the initial bacterial concentration (in CFU/mL) in the particular well to obtain a calibration plot of the form: Log([Bacteria],CFU/mL)=b+m*t Equation 4:” for “shaking.”
as §3, §4, §5

Test [3] concerns H-358 lung epithelial cancer cells. The experiment in a line: Cytotoxicity (Alamar blue). In kind it is cell-based, human. Conditions: ~6 hours, 10% fetal bovine serum. As to the method: FIG. 12 is a graph showing comparison of toxicities against Lung Primary Epithelial cells and Lung Cancerous Epithelial Cells, derived from H358 cell-line. Non-linear regression analysis of six-hour cytotoxicity data was performed to identify the concentration to achieve 50% lethality (LD50) for each toxic peptide. Each peptide was tested in triplicate.
Cytotoxicity. Cells were seeded in complete growth medium (Minimal Essential Medium, MEMα, supplemented with 10% Fetal Bovine Serum) into a culture-treated 96-well plate at a density of 25000 cells per well. After 24 hours, culture media was aspirated and replaced with media containing the selected peptide. No-serum experiments were conducted in Opti-MEM I reduced serum media (ThermoFisher, 31985062) and 10% serum experiments were performed in complete growth medium. In all cases, DBPS was used as a vehicle only control and buffer to serially dilute the peptides. After exposure to the peptides or vehicle-alone for the defined period, Alamar blue dye (resazurin) was added directly to the media and allowed to incubate for two hours. Following incubation, A570/A600 measurements were made to calculate reduction of resazurin dye to resorufin. A ratio of reduction in treated versus untreated cells was calculated in order to determine overall cell viability. The human cells were always maintained in a 37° C. incubator under 5% CO2. […]
For orientation: Resazurin is reduced to fluorescent resorufin, in cell work by metabolically active cells.

Take “RRWKRFFKRWKGGVIGVTFPF (SEQ ID NO: 50) [ATRA1-R3W2-HYD, ATRA1-R3W2 with hydrophobic tail of NA-CATH joined by -GG-]”: the “antimicrobial effectiveness, in words” value in the test on ESKAPE pathogens is reported as “highly effective, though in lower degree than PMB”; in test [1] it was “effective in mammalian serum”; in the test on Pseudomonas aeruginosa (DPBS), “good bactericidal properties”; with Pseudomonas aeruginosa (mammalian serum) it was “did not demonstrate antimicrobial effectiveness”; in test [2], “effective in mammalian serum”. Moreover, the LD50 in test [3] is around 24.5 µM.

Source of the values: US11447533B2, “Antimicrobial and anticancer peptides and conjugates and compositions, methods, articles and kits relating thereto” (George Mason Research Foundation, Inc., priority 2018, dated 2022).
